Read-outs that look alike come from different tables or passages of the source.
How the values were obtained:
[1] = system: wild-type rice plant (Nipponbare); assay: Sensitivity of wild-type rice (Nipponbare) to VLCFAE-inhibiting herbicides, gellan gum medium; format: in vivo; settings: Oryza sativa, 168 h
Description: Whether or not a rice plant comprising the TaQ8GTC0 gene introduced therein has VLCFAE-inhibiting herbicide resistance was determined on the basis of a difference in sensitivity of rice between transformant and wild-type. Accordingly, the sensitivity of the wild-type rice plant (Nipponbare) to VLCFAE-inhibiting herbicides used in the glutathione conjugation activity test was examined as described below.
The growth inhibition test was carried out using a gellan gum medium. Hoagland's mix and 3 g of gellan gum were suspended in 1 liter of distilled water and thoroughly dissolved therein by heating in a microwave. A fraction of the resultant (15 ml) was poured in a tubular bottle before it was cooled. When the herbicide (an acetone solution) was to be incorporated thereinto, the herbicide was simultaneously added at the time of filling of the gellan gum medium into the tubular bottle, followed by thorough mixing (final acetone concentration: 0.1%). Rice hulls were soaked in a 50-fold diluted sodium hypochlorite solution (antiformin) (Wako) for approximately 20 minutes and then thoroughly rinsed with water. Sterilized seeds were soaked in distilled water and allowed to stand at 27° C. for germination (for approximately 2 days). Germinating seeds were transferred with the sprout side up to a gellan gum medium containing herbicide (the tubular bottle). Subsequently, these samples, together with a beaker filled with distilled water, were placed in a transparent case, which was then covered with a clear plastic wrap. These samples were grown at 27° C. under fluorescent light illumination (14 hours of a light period and 10 hours of a dark period) for 1 week, the plants were sampled, and the plant heights were then measured. Inhibition of shoot growth was determined by comparison to control plant grown in the absence of herbicide and the concentration required for 50% inhibition (IC50) was determined by the Probit method.

[2] = system: rice plants comprising the TaQ8GTC0 gene introduced therein; assay: Herbicide resistance test of rice plants comprising the TaQ8GTC0 gene, gellan gum medium, plant height; format: in vivo; settings: for IC50: Oryza sativa, read-out: I50
Description: Hoagland's mix and 3 g of gellan gum were suspended in 1 liter of distilled water and thoroughly dissolved therein by heating in a microwave. A fraction of the resultant (15 ml) was injected into a tubular bottle before it was cooled (30 ml was injected into the plate). The herbicide was simultaneously added at the time of injection of the gellan gum medium into the tubular bottle or plate, followed by thorough mixing. Rice hulls were soaked in a 50-fold diluted sodium hypochlorite solution (antiformin) (Wako) for approximately 20 minutes and then thoroughly washed with water. Sterilized seeds were soaked in distilled water and allowed to stand at 27° C. for germination (for approximately 2 days). Germinating seeds were softly planted in the gellan gum medium (plate) containing 0.25 μM BS. These samples, together with a beaker filled with distilled water, were placed in a transparent case, which was then covered with a clear plastic wrap. These samples were grown at 27° C. under fluorescent light illumination (14 hours of a light period and 10 hours of a dark period) for 2 days. Thereafter, rice seeds that were determined to have BS resistance with the use of root elongation as the indicator were transferred to gellan gum media containing pyroxasulfone (tubal bottles) at the final concentrations of 10^−8, 10^−7, 10^−6, and 10^−5M, respectively. Subsequently, these samples, together with a beaker filled with distilled water, were placed in a transparent case, which was then covered with a clear plastic wrap. These samples were grown at 27° C. under fluorescent light illumination (14 hours of a light period and 10 hours of a dark period) for 4 to 5 days, and the plant heights were then measured. Inhibition of shoot growth was determined by comparison to control plants grown in the absence of pyroxasulfone and the concentration for required 50% inhibition (IC50) was determined by the Probit method.
Resistance of rice plants comprising the TaQ8GTC0 gene introduced therein to VLCFAE-inhibiting herbicides was tested in the same manner as with the pyroxasulfone resistance test described above.
FIGS. 7-1 to 7-6 show the results. In FIGS. 7-1 to 7-6, the concentration of 0 μM, the minimal concentration shown in Table 4 (×1), the concentration 4 times higher than the minimal concentration shown in Table 4 (×4), and the concentration 16 times higher than the minimal concentration shown in Table 4 (×16) are shown successively from left to right.

Cn1nc(C(F)(F)F)c(CS(=O)(=O)C2=NOC(C)(C)C2)c1OC(F)F [Pyroxasulfone, 3-[5-(difluoromethoxy)-1-methyl-3-(trifluoromethyl)pyrazol-4-ylmethylsulfonyl]-4,5-dihydro-5,5-dimethyl-1,2-oxazole]
minimal effective concentration ([1]; minimal concentration at which growth of wild-type rice is inhibited, read-out: Minimal inhibitory concentration): 0.075 µM
IC50 ([1]; shoot growth, 1 week, Probit method, read-out: I50): 48 nM
pyroxasulfone resistance relative to wild-type plants ([2]; 16 lines among 18 lines used in the test): ≥ 10 times
IC50 ([2]; lineage #1-3): 1140 nM
IC50 ([2]; lineage #1-4): 1310 nM
IC50 ([2]; lineage #1-7): 969 nM
IC50 ([2]; lineage #1-10): 510 nM
IC50 ([2]; lineage #2-6): 968 nM
IC50 ([2]; lineage #2-9): 1090 nM
IC50 ([2]; lineage #3-4): 1720 nM
IC50 ([2]; lineage #3-9): 1010 nM
IC50 ([2]; lineage #3-12): 67 nM
IC50 ([2]; lineage #3-13): 13800 nM
IC50 ([2]; lineage #4-1): 496 nM
IC50 ([2]; lineage #4-3): 4320 nM
IC50 ([2]; lineage #4-7): 7150 nM
IC50 ([2]; lineage #4-10): 2120 nM
IC50 ([2]; lineage #4-13): 3850 nM
IC50 ([2]; lineage #4-14): 45 nM
IC50 ([2]; lineage #5-1): 968 nM
IC50 ([2]; lineage #5-11): 983 nM
Pyroxasulfone resistance (ratio of IC50 of transformed rice to IC50 of wild-type rice) ([2]; lineage #1-3): 29
Pyroxasulfone resistance (ratio of IC50 of transformed rice to IC50 of wild-type rice) ([2]; lineage #1-4): 33
Pyroxasulfone resistance (ratio of IC50 of transformed rice to IC50 of wild-type rice) ([2]; lineage #1-7): 25
Pyroxasulfone resistance (ratio of IC50 of transformed rice to IC50 of wild-type rice) ([2]; lineage #1-10): 13
Pyroxasulfone resistance (ratio of IC50 of transformed rice to IC50 of wild-type rice) ([2]; lineage #2-6): 25
Pyroxasulfone resistance (ratio of IC50 of transformed rice to IC50 of wild-type rice) ([2]; lineage #2-9): 28
Pyroxasulfone resistance (ratio of IC50 of transformed rice to IC50 of wild-type rice) ([2]; lineage #3-4): 44
Pyroxasulfone resistance (ratio of IC50 of transformed rice to IC50 of wild-type rice) ([2]; lineage #3-9): 26
Pyroxasulfone resistance (ratio of IC50 of transformed rice to IC50 of wild-type rice) ([2]; lineage #3-12): 2
Pyroxasulfone resistance (ratio of IC50 of transformed rice to IC50 of wild-type rice) ([2]; lineage #3-13): 353
Pyroxasulfone resistance (ratio of IC50 of transformed rice to IC50 of wild-type rice) ([2]; lineage #3-13, listed as pyroxasulfone): approximately 350
growth of rice plants comprising the TaQ8GTC0 gene on herbicide medium ([2]; lineage #3-13, minimal concentration (×1), ×4 and ×16 of Table 4): the growth thereof was not affected at the maximal test concentration
Pyroxasulfone resistance (ratio of IC50 of transformed rice to IC50 of wild-type rice) ([2]; lineage #4-1): 13
Pyroxasulfone resistance (ratio of IC50 of transformed rice to IC50 of wild-type rice) ([2]; lineage #4-3): 111
Pyroxasulfone resistance (ratio of IC50 of transformed rice to IC50 of wild-type rice) ([2]; lineage #4-7): 183
resistance to pyroxasulfone ([2]; lineage #4-7, no data disclosed): high level of resistance
Pyroxasulfone resistance (ratio of IC50 of transformed rice to IC50 of wild-type rice) ([2]; lineage #4-10): 54
Pyroxasulfone resistance (ratio of IC50 of transformed rice to IC50 of wild-type rice) ([2]; lineage #4-13): 99
Pyroxasulfone resistance (ratio of IC50 of transformed rice to IC50 of wild-type rice) ([2]; lineage #4-14): 1
Pyroxasulfone resistance (ratio of IC50 of transformed rice to IC50 of wild-type rice) ([2]; lineage #5-1): 25
Pyroxasulfone resistance (ratio of IC50 of transformed rice to IC50 of wild-type rice) ([2]; lineage #5-11): 25
